Columns and labels:
HT116 colon cancer cells = test: Eight-day colony formation assay, HT116; format: cell-based, human
Experimental: (§1) We sought to identify compounds that would inhibit the growth of cancer cells, but that also did so selectively. Inhibition of cancer cell growth is a highly sought after attribute of anticancer agents. This was assessed by measuring the ability of a compound to inhibit cell growth in eight-day colony formation assays, examining concentrations ranging from 0.017 to 40 μM. Breast, colon, lung and prostate cancer are four of the most common causes of cancer in the United States, are major causes of cancer cell death, and were examined.[64] Two cell lines for each cancer type were assessed: A549 (adenocarcinoma) and H226 (squamous carcinoma) for lung, MCF-7 (estrogen receptor [ER] positive) and MDA-MB-231 (ER negative) for breast, LNCaP (androgen receptor [AR] positive) and PC3-M (AR negative) for prostate, and HCT116 (wild type p53, mutated KRAS) and HT29 (p53 mutant) for colon.[65]
(§2) In considering effect on cancer cells, for each compound and each cell line tested we calculated the efficacy ratio, i.e., efficacy ratio = (percent of remaining cancer cell colonies)/(percent of remaining bone marrow colonies), at 8 days after treatment with 40 μM compound (S4 Fig). We considered those with an efficacy ratio below 0.5 as active and at least partially selective. The stringency of this is highlighted by considering the effect of 5FU on colon cancer, where it is frequently used clinically in proven curative settings, as well as proven life prolonging settings.[70, 71] […] Even at 5.7 μM, where 5FU is toxic to bone marrow, with hematopoietic colony formation at 38% of control, the efficacy ratio for HT29 cells has only dropped to 0.52. […] It can be seen that compounds segregate to protein sites. Specifically, of 10 compounds meeting this activity criteria (i.e., efficacy ratio <0.5), 3 were directed at the Dxr2 site, 3 at FolC2, 2 at FolC1, 1 at Dxr1 and 1 at TYLT.
(§3) Eight-day colony formation assays of cancer cells were performed as described by us.[87] Briefly, 0.5–1.0 × 10^3 cells were seeded into a 12 well plate, after 24 hours compound added and eight days later colonies (of 3 or more cells) were scored after trypan blue staining. Conditions were in replicates of N = 2. All compounds were stored under desiccated conditions in a sealed container at minus 20°C upon arrival. One day prior to use, they were placed into DMSO, stored at […] as stock solutions, thawed just prior to use, and not reused.

A549 lung cancer cells = test: Eight-day colony formation assay, A549; format: cell-based, human
Experimental: as §1, §2, §3

[1] = test system: PC3-M prostate cancer cells; test: Eight-day colony formation assay, PC3-M; format: cell-based, human
Experimental: as §1, §2, §3

human melanoma M14 cells = test: Eight-day colony formation assay, M14; format: cell-based; settings: for IC50: M14, eight-day assay, mean ± SEM
Experimental: We next evaluated the effect of Dxr2-017 on human melanoma M14 and SK-MEL-5 cell lines in eight-day assays (Fig 8A).
(§4) Fig 8. Dxr2-017 inhibits melanoma cell growth through induction of anoikis. (A) Inhibition of melanoma cell growth. Cells were treated with different concentrations of Dxr2-017 and formation of colonies at eight days depicted. Data are expressed as percent of untreated control and are the mean ± SEM (N=3 replicates) of a single experiment. (B) No effect on cycle progression. M14 and SK-MEL-5 cells were treated for 8 days with 20 and 50 nM Dxr2-017, respectively, and phase of cell cycle determined by flow cytometry. Data are the mean ± SEM (N=3). *denotes P-value ≤0.05. (C) Transition to floating cells. Cells were treated for three days with different Dxr2-017 concentrations. Depicted are representative light photomicrographs at 20X; scale bar is150 μm. Blue and green arrows denote adherent and floating cells, respectively. (D) Cleaved caspase 3 is induced in floating cells. Cells were treated for 3 days, cell lysate from only adherent cells, or from adherent and floating cells combined, was probed by Western blot for cleaved caspase 3. All experiments were repeated at separate times, yielding similar results.
as §3

M14 cells = test: Western blot for cleaved caspase 3, M14; format: cell-based, human; settings: 3 days, up to 10 μM
Experimental: as §4
(§5) We then assessed whether Dxr2-017 was inducing apoptosis. […] These findings raised the possibility that Dxr2-017 was inducing anoikis, a process in which programmed cell death occurs upon cell detachment.[72, 73] […]

SK-MEL-5 cells = test: Western blot for cleaved caspase 3, SK-MEL-5; format: cell-based, human; settings: 3 days, up to 20 μM
Experimental: as §4, §5

For `c1ccc2sc(-c3ccc(CNc4ccc5nnnn5n4)o3)nc2c1` [Dxr2-017], the “efficacy ratio (cancer cell colonies to bone marrow colonies at 8 days)” value (“efficacy ratio” below) (HT116 colon cancer cells; 5.7 μM) was 0.69, the “efficacy ratio” value (HT116 colon cancer cells; 40 μM) was 0.08 and the “efficacy ratio” value (A549 lung cancer cells; 5.7 μM) was 1.26. For the same molecule, the “efficacy ratio” value (A549 lung cancer cells; 40 μM) was 0.07, the “efficacy ratio” value ([1]; 5.7 μM) was 0.41 and the “efficacy ratio” value ([1]; 40 μM) was 0.00. The IC50 (human melanoma M14 cells; Homo sapiens, M14, 192 h) was 19 nM, the IC50 (human melanoma M14 cells) was 19.7 ± 7.4 nM and the “fold efficacy versus bone marrow stem cells” value (human melanoma M14 cells; M14 IC50 compared to 40 μM eight-day bone marrow treatment) was “over 2100 fold”. The “cleaved caspase 3, adherent cells only” value (M14 cells) was “did not detect any induction of cleaved caspase 3”, the “cleaved caspase 3, floating and adherent cells combined” value (M14 cells) was “clear formation” and the “cleaved caspase 3, adherent cells only” value (SK-MEL-5 cells) was “did not detect any induction of cleaved caspase 3”. The “cleaved caspase 3, floating and adherent cells combined” value (SK-MEL-5 cells) was “clear formation”.
